Laboratory results from patent US20230083973A1, “SUBSTITUTED CYCLOPROPYL-2,2'-BIP[…], ANALOGUES THEREOF, AND METHODS USING SAME” (priority 2019, published 2023).
Like-named read-outs stand apart in the source and are kept apart here.

System: HBsAg
Assay: HBsAg assay: inhibition of HBsAg in HepG2.2.15 cells (chemiluminescence immunoassay of supernatant)
Assay type: cell-based, hepatitis B virus
Conditions: HBsAg in supernatant at day 6 after exposure to compound, 0.5% DMSO
Summary of the method: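 Secreted HBsAg quantified by CLIA in day-6 supernatants of HepG2.2.15 cultures given compound dilutions at 0.5% final DMSO, with one compound/medium replenishment after 2–3 days. Dose-response fits gave EC50 (50% inhibition); viability checked separately by CellTiter-Glo.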

[1] = Hepatitis B virus, HepG2.2.15, 144 h, read-out: sAg EC50, HepG2.2.15 cells
[2] = read-out: sAg EC50, HepG2.2.15 cells

SMILES | EC50 [1] | EC50 [2]
COc1ccc(C2CC2c2cnc(-c3ncccn3)nc2)cc1F (single isomer, unassigned) [Example 12, trans-5-(2-(3-Fluoro-4-methoxyphenyl)cyclopropyl)-2,2′-bipyrimidine] | 0.11 µM | –
COc1cc(C2CC2c2cnc(-c3ncccn3)nc2N2CCCCC2)ccc1F (single isomer, unassigned) [Example 144, trans-5-(2-(4-Fluoro-3-methoxyphenyl)cyclopropyl)-4-(piperidin-1-yl)-2,2′-bipyrimidine] | – | 25 µM
COc1cnn(-c2cc(C3CC3c3cnc(-c4ncccn4)nc3)cc(F)c2F)c1 (single isomer, unassigned) [Example 252, trans-5-(2-(3,4-Difluoro-5-(4-methoxy-1H-pyrazol-1-yl)phenyl)cyclopropyl)-2,2′-bipyrimidine] | – | 0.014 µM
Fc1ccc(C2CC2c2cnc(-c3ncccn3)nc2)cc1N1CCC(F)(F)C1 (single isomer, unassigned) [Example 44, trans-5-(2-(3-(3,3-Difluoropyrrolidin-1-yl)-4-fluorophenyl)cyclopropyl)-2,2′-bipyrimidine] | – | 0.11 µM
COc1cc(C2CC2c2cnc(-c3ncccn3)nc2)c(Cl)cc1Cl (single isomer, unassigned) [Example 88, trans-5-(2-(2,4-Dichloro-5-methoxyphenyl)cyclopropyl)-2,2′-bipyrimidine] | – | 0.084 µM
Fc1ccc(C2CC2c2cnc(-c3ncccn3)nc2)cc1OC(F)(F)F (single isomer, unassigned) [Example 39, trans-5-(2-(4-Fluoro-3-(trifluoromethoxy)phenyl)cyclopropyl)-2,2′-bipyrimidine] | – | 2 µM
O[C@H]1CCN(c2cc(C3CC3c3cnc(-c4ncccn4)nc3)cc(F)c2F)C1 (single isomer, unassigned) [Example 106] | – | 0.085 µM
O[C@@H]1CCN(c2cc(C3CC3c3cnc(-c4ncccn4)nc3)cc(F)c2F)C1 (single isomer, unassigned) [Example 105] | – | 0.097 µM
Cc1cnn(-c2cc([C@@H]3C[C@H]3c3cnc(-c4ncccn4)nc3)cc(F)c2F)c1 (relative stereo) [Example 232, trans-5-(2-(3,4-Difluoro-5-(4-methyl-1H-pyrazol-1-yl)phenyl)cyclopropyl)-2,2′-bipyrimidine] | 0.028 µM | –
O=C1CCCN1c1cc(C2CC2c2cnc(-c3ncccn3)nc2)ccc1F (single isomer, unassigned) [Example 197, trans-1-(5-(2-([2,2′-Bipyrimidin]-5-yl)cyclopropyl)-2-fluorophenyl)pyrrolidin-2-one] | – | 3 µM
COCCCn1cc2c(F)cc([C@@H]3C[C@H]3c3cnc(-c4ncccn4)nc3)cc2n1 (relative stereo) [Example 267, trans-6-(2-([2,2′-Bipyrimidin]-5-yl)cyclopropyl)-4-fluoro-2-(3-methoxypropyl)-2H-indazole] | 0.013 µM | –
O=C1CCCN1c1cc(C2CC2c2cnc(-c3ncccn3)nc2)ccc1F (single isomer, unassigned) [Example 198, trans-1-(5-(2-([2,2′-Bipyrimidin]-5-yl)cyclopropyl)-2-fluorophenyl)pyrrolidin-2-one] | – | 0.43 µM
COc1cc(C2CC2c2cnc(-c3ncccn3)nc2)c(Cl)cc1Cl (single isomer, unassigned) [Example 89, trans-5-(2-(2,4-Dichloro-5-methoxyphenyl)cyclopropyl)-2,2′-bipyrimidine] | – | 0.61 µM
O[C@@H]1CCN(c2cc(C3CC3c3cnc(-c4ncccn4)nc3)cc(Cl)c2F)C1 (single isomer, unassigned) [Example 127] | – | 0.11 µM
Fc1ccc(C2CC2c2cnc(-c3ncccn3)nc2)cc1N1CCC1 (single isomer, unassigned) [Example 83, trans-5-(2-(3-(Azetidin-1-yl)-4-fluorophenyl)cyclopropyl)-2,2′-bipyrimidine] | – | 0.035 µM
CS(=O)(=O)N1CCN(c2cc(C3CC3c3cnc(-c4ncccn4)nc3)ccc2F)CC1 (single isomer, unassigned) [Example 42, trans-5-(2-(4-Fluoro-3-(4-(methylsulfonyl)piperazin-1-yl)phenyl)cyclopropyl)-2,2′-bipyrimidine] | – | 0.22 µM
COCCOc1cc(C2CC2c2cnc(-c3ncccn3)nc2)ccc1F (single isomer, unassigned) [Example 22, trans-5-(2-(4-Fluoro-3-(2-methoxyethoxy)phenyl)cyclopropyl)-2,2′-bipyrimidine] | – | 0.059 µM
Fc1ccc([C@@H]2C[C@H]2c2cnc(-c3ncccn3)nc2)c2ccccc12 (relative stereo) [Example 168, trans-5-(2-(4-Fluoronaphthalen-1-yl)cyclopropyl)-2,2′-bipyrimidine] | 0.036 µM | –
COc1cc(C2CC2c2cnc(-c3ncccn3)nc2C2CCCCC2)ccc1F (single isomer, unassigned) [Example 78, trans-4-Cyclohexyl-5-(2-(4-fluoro-3-methoxyphenyl)cyclopropyl)-2,2′-bipyrimidine] | – | 11 µM
Fc1cc(C2CC2c2cnc(-c3ncccn3)nc2)cc(N2CCCC2)c1Cl (single isomer, unassigned) [Example 90, trans-5-(2-(4-Chloro-3-fluoro-5-(pyrrolidin-1-yl)phenyl)cyclopropyl)-2,2′-bipyrimidine] | 0.028 µM | –

SMILES | EC50 [1] | EC50 [2]
CCc1cc(F)c(OC)cc1C1CC1c1cnc(-c2ncccn2)nc1 (single isomer, unassigned) [Example 35, trans-5-(2-(2-Ethyl-4-fluoro-5-methoxyphenyl)cyclopropyl)-2,2′-bipyrimidine] | 0.55 µM | –
CN1CC[C@H](Nc2cc(C3CC3c3cnc(-c4ncccn4)nc3)cc(F)c2F)C1 (single isomer, unassigned) [Example 228] | – | 15 µM
COc1cc(F)ccc1C1CC1c1cnc(-c2ncccn2)nc1 (single isomer, unassigned) [Example 9, trans-5-(2-(4-Fluoro-2-methoxyphenyl)cyclopropyl)-2,2′-bipyrimidine] | – | 0.085 µM
CO[C@@H]1CCN(c2cc(C3CC3c3cnc(-c4ncccn4)nc3)cc(F)c2F)C1 (single isomer, unassigned) [Example 96] | – | 0.093 µM
Fc1ccc(C2CC2c2cnc(-c3ncccn3)nc2)cc1N1CCCC1 (single isomer, unassigned) [Example 20, trans-5-(2-(4-Fluoro-3-(pyrrolidin-1-yl)phenyl)cyclopropyl)-2,2′-bipyrimidine] | – | 0.023 µM
COC1CN(c2cc(C3CC3c3cnc(-c4ncccn4)nc3)ccc2F)C1 (single isomer, unassigned) [Example 48, trans-5-(2-(4-Fluoro-3-(3-methoxyazetidin-1-yl)phenyl)cyclopropyl)-2,2′-bipyrimidine] | – | 0.032 µM
COc1cc(C2CC2c2cnc(-c3ncccn3)nc2-c2ccc3nc(C)sc3c2)ccc1F (single isomer, unassigned) [Example 141, trans-6-(5-(2-(4-Fluoro-3-methoxyphenyl)cyclopropyl)-[2,2′-bipyrimidin]-4-yl)-2-methylbenzo[d]thiazole] | – | 1.2 µM
CN(C)C(=O)c1cc(C2CC2c2cnc(-c3ncccn3)nc2)ccc1Cl (single isomer, unassigned) [Example 204, trans-5-(2-([2,2′-Bipyrimidin]-5-yl)cyclopropyl)-2-chloro-N,N-dimethylbenzamide] | – | 4 µM
COc1cc(C2CC2c2cnc(-c3ncccn3)nc2OC)ccc1F (single isomer, unassigned) [Example 80, trans-5-(2-(4-Fluoro-3-methoxyphenyl)cyclopropyl)-4-methoxy-2,2′-bipyrimidine] | – | 0.1 µM
Fc1cc(C2CC2c2cnc(-c3ncccn3)nc2)cc(F)c1F (single isomer, unassigned) [Example 162, trans-5-(2-(3,4,5-Trifluorophenyl)cyclopropyl)-2,2′-bipyrimidine] | – | 0.16 µM
Fc1cc(C2CC2c2cnc(-c3ncccn3)nc2)cc(NC2CCCC2)c1F (single isomer, unassigned) [Example 208, trans-5-(2-([2,2′-Bipyrimidin]-5-yl)cyclopropyl)-N-cyclopentyl-2,3-difluoroaniline] | – | 0.11 µM
CO[C@H]1CCN(c2cc(C3CC3c3cnc(-c4ncccn4)nc3)ccc2F)C1 (single isomer, unassigned) [Example 68] | – | 0.085 µM
Fc1cc(C2CC2c2cnc(-c3ncccn3)nc2)cc(O[C@@H]2CCOC2)c1F (single isomer, unassigned) [Example 247] | – | 0.076 µM
CO[C@H]1CCN(c2cc(C3CC3c3cnc(-c4ncccn4)nc3)cc(F)c2F)C1 (single isomer, unassigned) [Example 103] | – | 0.008 µM
COCCCn1ncc2c(C3CC3c3cnc(-c4ncccn4)nc3)cc(F)c(F)c21 (single isomer, unassigned) [Example 265, trans-4-(2-([2,2′-Bipyrimidin]-5-yl)cyclopropyl)-6,7-difluoro-1-(3-methoxypropyl)-1H-indazole] | – | 0.061 µM
COCCOC1CN(c2cc([C@@H]3C[C@H]3c3cnc(-c4ncccn4)nc3)cc(F)c2F)C1 (relative stereo) [Example 212, trans-5-(2-(3,4-Difluoro-5-(3-(2-methoxyethoxy)azetidin-1-yl)phenyl)cyclopropyl)-2,2′-bipyrimidine] | 0.03 µM | –
CO[C@@H]1CCN(c2cc(C3CC3c3cnc(-c4ncccn4)nc3)cc(F)c2F)C1 (single isomer, unassigned) [Example 97] | – | 0.014 µM
COCc1cnn(-c2cc([C@@H]3C[C@H]3c3cnc(-c4ncccn4)nc3)cc(F)c2F)c1 (relative stereo) [Example 236, trans-5-(2-(3,4-Difluoro-5-(4-(methoxymethyl)-1H-pyrazol-1-yl)phenyl)cyclopropyl)-2,2′-bipyrimidine] | 0.078 µM | –
COCCOc1ccc(C2CC2c2cnc(-c3ncccn3)nc2)cc1F (single isomer, unassigned) [Example 23, trans-5-(2-(3-Fluoro-4-(2-methoxyethoxy)phenyl)cyclopropyl)-2,2′-bipyrimidine] | 0.095 µM | –
